# Patent US20240024333A1, “USE OF SMALL MOLECULE FAK ACTIVATORS TO PROMOTE MUCOSAL HEALING” (Regents of the University of Minnesota, priority 2020, published 2024)
# Entries after “also recorded” stand apart in the source; their conditions may differ.
# Experiments:
# [1] = biological target: T1, FAK (Homo sapiens, UniProt Q05397); experiment: Cell-based FAK-Tyr-397 activation (Western blot, Caco-2 cells)
# T1 construct: endogenous in cells; host or cells: Caco-2 (human, ATCC)
# Protocol: Human Caco-2 cells were from ATCC (Manassas, VA) and maintained in Dulbecco's Modified Essential Eagle's Medium supplemented with 10% FBS as described by us previously 25. 80-90% confluent Caco-2 cells were seeded into cell culture plates pacificated with 1% heat inactivated bovine serum albumin to prevent adhesion and avoid adhesion-associated background FAK activation. Suspended cells were then treated with DMSO (0.1%) or small molecules for 1 hour before harvesting for Western blotting.
# Cells were lysed and protein concentration was determined via bicinchoninic acid protein assay (Thermo Fisher, Rockford, IL). […] Images were taken using a LICOR-Odyssey-Fc imaging system (LI-COR Biosciences, Lincoln, NE).
# [2] = test system: Caco-2 cells; experiment: Caco-2 monolayer wound closure assay; assay type: cell-based, human
# Protocol: Caco-2 cells were seeded at 75-80% confluence into collagen I coated 6-well plates. When the cells reached 100% confluence, wounds were made in the monolayers with non-barrier autoclaved tips. Wound images were captured using an inverted light microscope (OLYMPUS CK2, Center Valley, PA) at 0 hours and 24 hours after treatment with DMSO or small molecules. Wound areas were measured with Image J software.
# [3] = biological target: T2, Pyk2 (Homo sapiens, UniProt Q14289); experiment: Pyk2 activation in intact cells; assay type: cell-based
# T2 construct: endogenous in cells; host or cells: Caco-2
# [4] = biological target: T3, Src (Homo sapiens, UniProt P12931); experiment: Src activation in intact cells; assay type: cell-based
# T3 construct: endogenous in cells; host or cells: Caco-2
# [5] = test system: ischemic ileal mucosal ulcers; experiment: Ischemic ileal ulcer model (acetic-acid-soaked discs on serosa); assay type: in vivo, mice
# [6] = test system: intestinal mucosal ulcers; experiment: Intestinal mucosal healing in vivo (model not given); parameters: species or system mice; details: mouse
# [7] = test system: IMR-90 human pulmonary fibroblasts; experiment: Cytotoxicity in IMR-90 cells; assay type: cell-based; details: IMR90
# [8] = test system: SH-SY5Y human neuronal cells; experiment: Cytotoxicity in SH-SY5Y cells; assay type: cell-based
# [9] = B/P ratio and blood-brain barrier crossing; assay type: in vivo
# [10] = Human plasma stability; assay type: in vitro ADME; details: at 6 h
# [11] = Plasma protein binding; assay type: in vitro ADME; details: plasma
# Excerpt: (§1) The most successful molecules underwent in vitro ADMET assays, including mouse and human metabolic stability, solubility (pH 7.4), Caco-2 (permeability), and log D determination. We will evaluate lead candidates for drug-like properties, including aqueous solubility (PBS buffer, pH 7.4), pKa, lipophilicity, chemical stability at pH 1 (the pH of the stomach), pH 6 (small intestine), A-B partitioning (octanol-PBS buffer, pH 7.4), liver microsomal stability as an indication of potential first-pass metabolism (microsomes from mouse and humans), substrate potential for isoforms of human P450 such as CYP3A4, cell permeability (Caco-2 cells), hERG toxicity (cell lines), mutagenesis, and plasma protein binding (mouse & human). […]. Computed physical properties that correlate with good oral bioavailability and cell permeability will be calculated for new compounds throughout the optimization process and will […] also influence lead compound selection as will ligand efficiency (LE) and lipophilic efficiency (LLE). Molecules will be administered by gavage to mice at 30 mg/kg, and we will measure plasma levels at 2 and 4 hours. The most successful molecules in this regard (with the highest levels at 2 and 4 hours) may be further modified by developing combinations of modifications at different parts of the molecule.
# [12] = biological target: CYP 2C9 (Homo sapiens, UniProt P11712); experiment: CYP 2C9 inhibition; assay type: in vitro ADME
# Excerpt: as §1
# [13] = biological target: CYP 2C19 (Homo sapiens, UniProt P33261); experiment: CYP 2C19 inhibition; assay type: in vitro ADME
# Excerpt: as §1
# [14] = biological target: CYP 2D6 (Homo sapiens, UniProt P10635); experiment: CYP 2D6 inhibition; assay type: in vitro ADME
# Excerpt: as §1
# [15] = biological target: hERG (Homo sapiens, UniProt Q12809); experiment: hERG toxicity; assay type: cell-based
# Excerpt: as §1
# [16] = Mini-Ames
# Excerpt: as §1
# [17] = log D determination; assay type: physicochemical; details: pH 7.4
# Excerpt: as §1
# [18] = Solubility; assay type: physicochemical
# Excerpt: as §1
# [19] = test system: mice; details: mouse, in vivo
# [20] = mouse, in vivo, po
# [21] = in vivo; details: mouse, T1/2
# [22] = biological target: FAK 35 kD kinase domain (Homo sapiens, UniProt Q05397); experiment: In vitro kinase assay with purified FAK kinase domain; details: FIG. 5
# Sequence of FAK 35 kD kinase domain (Q05397 422-680 limits assumed): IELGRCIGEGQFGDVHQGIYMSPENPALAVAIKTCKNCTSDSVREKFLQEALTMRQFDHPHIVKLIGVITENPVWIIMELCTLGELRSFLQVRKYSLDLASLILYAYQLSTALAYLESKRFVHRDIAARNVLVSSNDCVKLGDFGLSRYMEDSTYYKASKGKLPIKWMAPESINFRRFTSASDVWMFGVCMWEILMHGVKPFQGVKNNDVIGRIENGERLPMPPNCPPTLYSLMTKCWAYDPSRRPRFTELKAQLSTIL
# T1 sequence (Q05397 whole entry): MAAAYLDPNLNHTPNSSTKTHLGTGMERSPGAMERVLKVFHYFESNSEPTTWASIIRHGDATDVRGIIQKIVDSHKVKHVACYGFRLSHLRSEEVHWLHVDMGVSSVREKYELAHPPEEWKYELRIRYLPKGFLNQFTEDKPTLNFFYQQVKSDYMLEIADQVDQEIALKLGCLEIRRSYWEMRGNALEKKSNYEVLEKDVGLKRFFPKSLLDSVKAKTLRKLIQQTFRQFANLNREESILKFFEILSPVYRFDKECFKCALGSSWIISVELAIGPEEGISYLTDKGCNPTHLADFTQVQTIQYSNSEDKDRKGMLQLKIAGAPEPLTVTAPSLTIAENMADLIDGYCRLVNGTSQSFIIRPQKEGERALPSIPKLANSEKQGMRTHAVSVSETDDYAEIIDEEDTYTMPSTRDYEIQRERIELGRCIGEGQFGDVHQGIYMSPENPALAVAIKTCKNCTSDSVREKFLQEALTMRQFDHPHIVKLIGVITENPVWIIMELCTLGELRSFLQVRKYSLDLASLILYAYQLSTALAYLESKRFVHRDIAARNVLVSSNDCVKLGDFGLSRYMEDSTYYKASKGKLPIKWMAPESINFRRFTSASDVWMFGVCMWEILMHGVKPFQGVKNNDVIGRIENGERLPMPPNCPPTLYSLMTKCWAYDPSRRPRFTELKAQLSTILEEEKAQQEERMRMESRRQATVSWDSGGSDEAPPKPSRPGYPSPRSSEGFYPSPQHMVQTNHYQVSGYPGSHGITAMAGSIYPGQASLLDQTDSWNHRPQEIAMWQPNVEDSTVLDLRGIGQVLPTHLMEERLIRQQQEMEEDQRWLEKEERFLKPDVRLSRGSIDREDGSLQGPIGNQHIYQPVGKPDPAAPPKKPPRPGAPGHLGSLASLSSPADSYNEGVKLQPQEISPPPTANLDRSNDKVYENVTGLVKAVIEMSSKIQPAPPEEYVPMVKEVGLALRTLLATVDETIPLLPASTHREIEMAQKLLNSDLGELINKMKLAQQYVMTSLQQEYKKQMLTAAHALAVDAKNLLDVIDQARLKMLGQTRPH
# Sequence of CYP 2D6 (P10635 whole entry): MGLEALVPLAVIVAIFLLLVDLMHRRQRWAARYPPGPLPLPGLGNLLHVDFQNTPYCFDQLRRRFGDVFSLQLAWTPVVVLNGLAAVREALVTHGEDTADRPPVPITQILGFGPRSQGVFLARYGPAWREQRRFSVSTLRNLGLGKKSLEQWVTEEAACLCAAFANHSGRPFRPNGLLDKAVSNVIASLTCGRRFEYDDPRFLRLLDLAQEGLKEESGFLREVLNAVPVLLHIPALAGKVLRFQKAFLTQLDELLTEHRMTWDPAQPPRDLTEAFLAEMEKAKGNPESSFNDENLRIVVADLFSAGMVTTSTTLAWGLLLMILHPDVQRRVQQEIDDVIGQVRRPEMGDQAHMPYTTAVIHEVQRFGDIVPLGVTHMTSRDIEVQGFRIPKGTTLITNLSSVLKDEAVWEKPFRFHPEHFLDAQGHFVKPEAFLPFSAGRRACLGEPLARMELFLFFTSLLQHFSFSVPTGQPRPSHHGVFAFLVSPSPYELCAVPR
# Sequence of hERG (Q12809 whole entry): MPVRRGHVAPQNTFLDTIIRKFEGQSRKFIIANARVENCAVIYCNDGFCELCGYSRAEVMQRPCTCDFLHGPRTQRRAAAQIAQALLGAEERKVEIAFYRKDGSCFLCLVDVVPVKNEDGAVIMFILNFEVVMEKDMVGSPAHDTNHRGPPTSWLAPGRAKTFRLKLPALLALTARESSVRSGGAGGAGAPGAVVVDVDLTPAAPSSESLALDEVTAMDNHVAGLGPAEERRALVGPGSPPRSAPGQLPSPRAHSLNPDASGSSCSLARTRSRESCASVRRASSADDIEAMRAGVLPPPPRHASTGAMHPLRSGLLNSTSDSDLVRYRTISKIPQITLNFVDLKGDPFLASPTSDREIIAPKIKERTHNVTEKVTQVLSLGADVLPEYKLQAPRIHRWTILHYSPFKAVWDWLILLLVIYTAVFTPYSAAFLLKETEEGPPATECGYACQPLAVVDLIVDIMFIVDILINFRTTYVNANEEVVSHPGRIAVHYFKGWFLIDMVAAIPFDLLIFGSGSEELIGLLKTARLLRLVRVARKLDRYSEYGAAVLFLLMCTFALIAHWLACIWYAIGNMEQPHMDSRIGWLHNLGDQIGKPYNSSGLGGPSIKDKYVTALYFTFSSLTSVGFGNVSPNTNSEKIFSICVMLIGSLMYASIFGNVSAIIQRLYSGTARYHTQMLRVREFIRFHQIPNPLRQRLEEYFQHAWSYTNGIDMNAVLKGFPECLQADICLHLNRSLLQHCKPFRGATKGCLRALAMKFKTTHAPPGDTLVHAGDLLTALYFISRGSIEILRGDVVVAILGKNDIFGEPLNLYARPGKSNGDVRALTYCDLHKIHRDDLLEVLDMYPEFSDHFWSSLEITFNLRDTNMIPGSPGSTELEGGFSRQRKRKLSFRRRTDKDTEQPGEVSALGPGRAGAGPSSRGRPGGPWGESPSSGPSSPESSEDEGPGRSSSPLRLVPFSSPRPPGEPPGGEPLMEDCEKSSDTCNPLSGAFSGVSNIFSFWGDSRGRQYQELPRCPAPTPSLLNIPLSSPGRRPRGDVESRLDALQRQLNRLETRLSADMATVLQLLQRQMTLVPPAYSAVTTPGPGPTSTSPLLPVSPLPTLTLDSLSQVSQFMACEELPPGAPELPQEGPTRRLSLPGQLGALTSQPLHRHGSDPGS
# Sequence of CYP 2C9 (P11712 whole entry): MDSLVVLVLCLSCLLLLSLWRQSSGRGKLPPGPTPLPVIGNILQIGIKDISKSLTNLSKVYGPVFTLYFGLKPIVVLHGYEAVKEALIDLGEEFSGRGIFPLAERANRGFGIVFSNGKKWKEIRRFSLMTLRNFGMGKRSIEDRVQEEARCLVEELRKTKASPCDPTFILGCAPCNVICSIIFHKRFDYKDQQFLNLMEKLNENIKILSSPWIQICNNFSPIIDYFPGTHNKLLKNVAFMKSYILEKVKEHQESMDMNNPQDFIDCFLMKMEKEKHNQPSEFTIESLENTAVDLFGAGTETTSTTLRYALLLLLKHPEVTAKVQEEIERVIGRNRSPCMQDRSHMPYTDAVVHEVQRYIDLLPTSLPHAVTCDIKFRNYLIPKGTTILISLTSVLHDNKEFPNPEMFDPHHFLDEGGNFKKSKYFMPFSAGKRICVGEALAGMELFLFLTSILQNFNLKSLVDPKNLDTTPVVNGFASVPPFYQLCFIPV
# T2 sequence (Q14289 whole entry): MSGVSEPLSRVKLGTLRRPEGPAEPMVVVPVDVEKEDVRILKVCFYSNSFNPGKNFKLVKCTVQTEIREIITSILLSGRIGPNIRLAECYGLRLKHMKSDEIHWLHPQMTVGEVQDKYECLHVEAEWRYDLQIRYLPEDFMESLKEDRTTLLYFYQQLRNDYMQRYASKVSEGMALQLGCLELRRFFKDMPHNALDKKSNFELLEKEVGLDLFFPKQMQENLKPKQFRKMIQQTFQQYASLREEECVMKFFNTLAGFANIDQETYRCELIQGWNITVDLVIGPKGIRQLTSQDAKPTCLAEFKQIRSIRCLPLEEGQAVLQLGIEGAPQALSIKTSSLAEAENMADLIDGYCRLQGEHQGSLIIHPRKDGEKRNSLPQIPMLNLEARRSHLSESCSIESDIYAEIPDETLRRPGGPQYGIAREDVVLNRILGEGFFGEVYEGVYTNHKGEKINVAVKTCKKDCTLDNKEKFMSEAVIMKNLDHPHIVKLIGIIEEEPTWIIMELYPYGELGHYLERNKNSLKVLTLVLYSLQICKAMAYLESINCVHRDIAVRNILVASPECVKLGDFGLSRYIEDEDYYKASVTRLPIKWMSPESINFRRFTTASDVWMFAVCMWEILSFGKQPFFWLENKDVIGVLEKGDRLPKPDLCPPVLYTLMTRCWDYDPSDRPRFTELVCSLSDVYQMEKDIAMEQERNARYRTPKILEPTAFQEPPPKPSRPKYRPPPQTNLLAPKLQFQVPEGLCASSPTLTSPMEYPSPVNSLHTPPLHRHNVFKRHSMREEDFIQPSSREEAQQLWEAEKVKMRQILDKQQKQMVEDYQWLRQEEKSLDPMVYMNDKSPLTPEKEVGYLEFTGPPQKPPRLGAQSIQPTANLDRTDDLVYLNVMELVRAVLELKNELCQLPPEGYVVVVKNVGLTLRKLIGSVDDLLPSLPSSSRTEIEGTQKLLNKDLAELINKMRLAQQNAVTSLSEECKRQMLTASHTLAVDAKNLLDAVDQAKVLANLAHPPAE
# Sequence of CYP 2C19 (P33261 whole entry): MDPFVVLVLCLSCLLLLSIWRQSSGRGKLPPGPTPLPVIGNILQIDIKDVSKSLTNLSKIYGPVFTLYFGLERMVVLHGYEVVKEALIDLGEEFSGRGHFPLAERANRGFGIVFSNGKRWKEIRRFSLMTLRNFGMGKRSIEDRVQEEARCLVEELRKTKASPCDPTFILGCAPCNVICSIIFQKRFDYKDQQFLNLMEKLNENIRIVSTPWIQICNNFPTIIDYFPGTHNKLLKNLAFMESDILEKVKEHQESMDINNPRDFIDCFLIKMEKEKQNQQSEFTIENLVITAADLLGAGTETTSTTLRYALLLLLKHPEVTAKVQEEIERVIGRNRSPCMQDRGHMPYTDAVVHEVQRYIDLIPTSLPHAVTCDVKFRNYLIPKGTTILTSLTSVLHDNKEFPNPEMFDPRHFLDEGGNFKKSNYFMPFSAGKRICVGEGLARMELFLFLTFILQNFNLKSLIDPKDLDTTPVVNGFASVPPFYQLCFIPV
compound,measurement,setting,value
O=C(Nc1cc(C(F)(F)F)ccc1N1CCOCC1)N1CCCC1c1ccncc1 (centres unmarked) [Compound 24],concentration level of FAK activation (in words),[1],considerably lower concentration than 45
same,concentration as low as which FAK is activated,[1]; Caco-2 cells,100 pM
same,EC50,"[1]; in vitro, assay not named in Table 4, read-out: FAK potency EC50",< 0.01 µM
same,FAK activation / FAK-Tyr-397 phosphorylation (in words),[1]; vs. DMSO vehicle control,seemed to activate FAK
same,concentration as low as which in vitro wound closure is stimulated,[2],100 pM
same,Selectivity against relative off-targets: no Pyk2 activation at multiple of FAK activation,[3],activation at >1000 × × FAK activation
same,Selectivity against relative off-targets: no Src activation at multiple of FAK activation,[4],activation at >1000 × × FAK activation
same,ischemic ulcer healing (in words),"[5]; mice, 40: 30 mg/kg/day by osmotic minipump, 4 days, 30 mg/kg/day",accelerated; also recorded: can heal intestinal mucosal ulcers
same,Mouse therapeutic dose,[5]; × 4 days,<30 mg/kg/day
same,intestinal mucosal healing in vivo (in words),[6],promoting small bowel mucosal wound healing
same,Cytotoxicity (LD50),[7],>1 mM
same,Cytotoxicity (LD50),[8],>1 mM
same,B/P ratio,[9]; 2 h,B/P ratio <0.15
same,blood-brain barrier crossing (in words),[9]; in vivo,cross the blood-brain barrier
same,Human plasma stability,[10],98.62% at 6 h
same,fraction unbound,[11],0.0949
same,IC50,[12],4.5 µM
same,IC50,[13],5.43 µM
same,IC50,[14],10.1 µM
same,hERG,[15],hERG = 2.958 μM
same,Mini-Ames,[16],negative
same,log D7.4,[17],log D7.4 = 3.12
same,water solubility / need of DMSO (in words),[18],required DMSO solubilization; also recorded: somewhat less insoluble
same,solubility,"[18]; PBS buffer, pH 7.4, aqueous buffer",252 µM
same,neurotoxicity (in words),[19],no neurotoxicity was detected
same,tolerability / gross toxicity in mice (in words),[19],without obvious toxicity
same,oral / enteral absorption (in words),[20],readily orally
same,half-life,[21],~1.5 h
same,concentration of maximal effect in in vitro kinase assay,[22],about 0.3 nM
